Source: PubChem BioAssay (NCI)
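Growth conditions: 96-well plates. Treatment: test compound, 48 hours, 5 concentrations. Analysis: linear interpolation between bracketing concentrations; unreached endpoints set to highest concentration. The concentration for full growth arrest is given as TGI.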

Columns and labels:
Assay in all cases: NCI anticancer screen, dose series, 48 h
786-0 renal = tested on: 786-0 renal
A498 renal = tested on: A498 renal
A549 NSCLC = tested on: A549 NSCLC
ACHN renal = tested on: ACHN renal
BT-549 breast = tested on: BT-549 breast
CAKI-1 renal = tested on: CAKI-1 renal
CCRF-CEM leukemia = tested on: CCRF-CEM leukemia
COLO 205 colon = tested on: COLO 205 colon
DU-145 prostate = tested on: DU-145 prostate
EKVX NSCLC = tested on: EKVX NSCLC
HCC-2998 colon = tested on: HCC-2998 colon
HCT-116 colon = tested on: HCT-116 colon
HCT-15 colon = tested on: HCT-15 colon
HL-60(TB) leukemia = tested on: HL-60(TB) leukemia
HOP-62 NSCLC = tested on: HOP-62 NSCLC
HOP-92 NSCLC = tested on: HOP-92 NSCLC
HS 578T breast = tested on: HS 578T breast
HT29 colon = tested on: HT29 colon
IGROV1 ovarian = tested on: IGROV1 ovarian
K-562 leukemia = tested on: K-562 leukemia
KM12 colon = tested on: KM12 colon
LOX IMVI melanoma = tested on: LOX IMVI melanoma
M14 melanoma = tested on: M14 melanoma
MALME-3M melanoma = tested on: MALME-3M melanoma
MCF7 breast = tested on: MCF7 breast
MDA-MB-231 breast = tested on: MDA-MB-231 breast
MDA-MB-435 = tested on: MDA-MB-435
MDA-N = tested on: MDA-N
MOLT-4 leukemia = tested on: MOLT-4 leukemia
NCI-H226 lung = tested on: NCI-H226 lung
NCI-H23 lung = tested on: NCI-H23 lung
NCI-H460 lung = tested on: NCI-H460 lung
NCI-H522 lung = tested on: NCI-H522 lung
NCI/ADR-RES ovarian = tested on: NCI/ADR-RES ovarian
OVCAR-3 ovarian = tested on: OVCAR-3 ovarian
OVCAR-4 ovarian = tested on: OVCAR-4 ovarian
OVCAR-5 ovarian = tested on: OVCAR-5 ovarian
OVCAR-8 ovarian = tested on: OVCAR-8 ovarian
PC-3 prostate = tested on: PC-3 prostate
RPMI-8226 leukemia = tested on: RPMI-8226 leukemia
RXF 393 renal = tested on: RXF 393 renal
SF-268 CNS = tested on: SF-268 CNS
SF-295 CNS = tested on: SF-295 CNS
SF-539 CNS = tested on: SF-539 CNS
SK-MEL-2 melanoma = tested on: SK-MEL-2 melanoma
SK-MEL-5 melanoma = tested on: SK-MEL-5 melanoma
SK-OV-3 ovarian = tested on: SK-OV-3 ovarian
SN12C renal = tested on: SN12C renal
SNB-19 CNS = tested on: SNB-19 CNS
SNB-75 CNS = tested on: SNB-75 CNS
SW-620 colon = tested on: SW-620 colon
T-47D breast = tested on: T-47D breast
TK-10 renal = tested on: TK-10 renal
U251 CNS = tested on: U251 CNS
UACC-257 melanoma = tested on: UACC-257 melanoma
UACC-62 melanoma = tested on: UACC-62 melanoma
UO-31 renal = tested on: UO-31 renal
SK-MEL-28 melanoma = tested on: SK-MEL-28 melanoma

COc1ccc2c(c1)C1Oc3ccccc3CC1CO2 (stereo not drawn)
TGI (786-0 renal): > 100 µM | TGI (A498 renal): 96.2 µM | TGI (A549 NSCLC): > 100 µM | TGI (ACHN renal): > 100 µM | TGI (BT-549 breast): > 100 µM | TGI (CAKI-1 renal): > 100 µM | TGI (CCRF-CEM leukemia): > 100 µM | TGI (COLO 205 colon): > 100 µM | TGI (DU-145 prostate): > 100 µM | TGI (EKVX NSCLC): > 100 µM | TGI (HCC-2998 colon): 42.7 µM | TGI (HCT-116 colon): > 100 µM | TGI (HCT-15 colon): > 100 µM | TGI (HL-60(TB) leukemia): 50 µM | TGI (HOP-62 NSCLC): > 100 µM | TGI (HOP-92 NSCLC): 87 µM | TGI (HS 578T breast): > 100 µM | TGI (HT29 colon): > 100 µM | TGI (IGROV1 ovarian): > 100 µM | TGI (K-562 leukemia): > 100 µM | TGI (KM12 colon): > 100 µM | TGI (LOX IMVI melanoma): > 100 µM | TGI (M14 melanoma): > 100 µM | TGI (MALME-3M melanoma): > 100 µM | TGI (MCF7 breast): > 100 µM | TGI (MDA-MB-231 breast): > 100 µM | TGI (MDA-MB-435): > 100 µM | TGI (MDA-N): > 100 µM | TGI (MOLT-4 leukemia): 52.9 µM | TGI (NCI-H226 lung): > 100 µM | TGI (NCI-H23 lung): > 100 µM | TGI (NCI-H460 lung): > 100 µM | TGI (NCI-H522 lung): > 100 µM | TGI (NCI/ADR-RES ovarian): > 100 µM | TGI (OVCAR-3 ovarian): > 100 µM | TGI (OVCAR-4 ovarian): > 100 µM | TGI (OVCAR-5 ovarian): > 100 µM | TGI (OVCAR-8 ovarian): > 100 µM | TGI (PC-3 prostate): > 100 µM | TGI (RPMI-8226 leukemia): 65.4 µM | TGI (RXF 393 renal): 88.9 µM | TGI (SF-268 CNS): > 100 µM | TGI (SF-295 CNS): > 100 µM | TGI (SF-539 CNS): > 100 µM | TGI (SK-MEL-2 melanoma): > 100 µM | TGI (SK-MEL-5 melanoma): > 100 µM | TGI (SK-OV-3 ovarian): > 100 µM | TGI (SN12C renal): > 100 µM | TGI (SNB-19 CNS): > 100 µM | TGI (SNB-75 CNS): 98.7 µM | TGI (SW-620 colon): > 100 µM | TGI (T-47D breast): > 100 µM | TGI (TK-10 renal): > 100 µM | TGI (U251 CNS): > 100 µM | TGI (UACC-257 melanoma): > 100 µM | TGI (UACC-62 melanoma): > 100 µM | TGI (UO-31 renal): 75.8 µM

CCOC(=O)c1sc2c(c1OC(=O)c1ccco1)c(=O)n(-c1ccccc1)c(=S)n2-c1ccccc1
TGI (786-0 renal): > 100 µM | TGI (A498 renal): 60.4 µM | TGI (A549 NSCLC): > 100 µM | TGI (ACHN renal): 83.8 µM | TGI (CAKI-1 renal): 82.8 µM | TGI (CCRF-CEM leukemia): > 100 µM | TGI (COLO 205 colon): 38.1 µM | TGI (DU-145 prostate): > 100 µM | TGI (EKVX NSCLC): 55.4 µM | TGI (HCC-2998 colon): > 100 µM | TGI (HCT-116 colon): > 100 µM | TGI (HCT-15 colon): > 100 µM | TGI (HL-60(TB) leukemia): 52.2 µM | TGI (HOP-62 NSCLC): > 100 µM | TGI (HOP-92 NSCLC): 71.3 µM | TGI (HS 578T breast): > 100 µM | TGI (HT29 colon): > 100 µM | TGI (IGROV1 ovarian): 36.3 µM | TGI (K-562 leukemia): > 100 µM | TGI (KM12 colon): > 100 µM | TGI (LOX IMVI melanoma): 61.7 µM | TGI (M14 melanoma): > 100 µM | TGI (MALME-3M melanoma): 60.6 µM | TGI (MCF7 breast): > 100 µM | TGI (MDA-MB-231 breast): > 100 µM | TGI (MDA-MB-435): 93 µM | TGI (MDA-N): > 100 µM | TGI (MOLT-4 leukemia): 49.3 µM | TGI (NCI-H226 lung): 87.2 µM | TGI (NCI-H23 lung): > 100 µM | TGI (NCI-H460 lung): 45.5 µM | TGI (NCI-H522 lung): > 100 µM | TGI (NCI/ADR-RES ovarian): 57 µM | TGI (OVCAR-3 ovarian): 76.9 µM | TGI (OVCAR-4 ovarian): > 100 µM | TGI (OVCAR-5 ovarian): > 100 µM | TGI (OVCAR-8 ovarian): 70.8 µM | TGI (PC-3 prostate): 50 µM | TGI (RPMI-8226 leukemia): 78.5 µM | TGI (RXF 393 renal): 62 µM | TGI (SF-268 CNS): > 100 µM | TGI (SF-295 CNS): > 100 µM | TGI (SF-539 CNS): 97.9 µM | TGI (SK-MEL-28 melanoma): > 100 µM | TGI (SK-MEL-5 melanoma): 32.1 µM | TGI (SK-OV-3 ovarian): > 100 µM | TGI (SN12C renal): 84.4 µM | TGI (SNB-19 CNS): > 100 µM | TGI (SNB-75 CNS): > 100 µM | TGI (SW-620 colon): > 100 µM | TGI (T-47D breast): > 100 µM | TGI (TK-10 renal): > 100 µM | TGI (U251 CNS): > 100 µM | TGI (UACC-257 melanoma): > 100 µM | TGI (UACC-62 melanoma): 84.3 µM | TGI (UO-31 renal): 2.71 µM
